One may read the IC50 as the concentration at which inhibition is half-maximal. In general, Ki refers to the equilibrium dissociation constant of an inhibitor or competing ligand from its target.

Results on 2 compounds are retold here after ChEMBL document CHEMBL1909046, “DrugMatrix in vitro pharmacology data”.

C-C chemokine receptor type 5, sequence (P51681 whole entry): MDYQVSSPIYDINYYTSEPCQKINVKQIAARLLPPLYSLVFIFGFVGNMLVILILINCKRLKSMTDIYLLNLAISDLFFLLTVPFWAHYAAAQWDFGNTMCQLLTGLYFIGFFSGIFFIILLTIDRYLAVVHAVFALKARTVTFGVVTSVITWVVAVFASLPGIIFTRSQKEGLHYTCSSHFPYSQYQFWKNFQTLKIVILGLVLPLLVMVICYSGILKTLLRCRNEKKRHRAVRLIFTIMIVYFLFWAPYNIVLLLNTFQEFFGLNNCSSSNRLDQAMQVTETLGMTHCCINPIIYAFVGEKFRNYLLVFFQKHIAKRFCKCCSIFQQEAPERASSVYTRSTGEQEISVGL
Vascular endothelial growth factor receptor 1, sequence (P17948 whole entry): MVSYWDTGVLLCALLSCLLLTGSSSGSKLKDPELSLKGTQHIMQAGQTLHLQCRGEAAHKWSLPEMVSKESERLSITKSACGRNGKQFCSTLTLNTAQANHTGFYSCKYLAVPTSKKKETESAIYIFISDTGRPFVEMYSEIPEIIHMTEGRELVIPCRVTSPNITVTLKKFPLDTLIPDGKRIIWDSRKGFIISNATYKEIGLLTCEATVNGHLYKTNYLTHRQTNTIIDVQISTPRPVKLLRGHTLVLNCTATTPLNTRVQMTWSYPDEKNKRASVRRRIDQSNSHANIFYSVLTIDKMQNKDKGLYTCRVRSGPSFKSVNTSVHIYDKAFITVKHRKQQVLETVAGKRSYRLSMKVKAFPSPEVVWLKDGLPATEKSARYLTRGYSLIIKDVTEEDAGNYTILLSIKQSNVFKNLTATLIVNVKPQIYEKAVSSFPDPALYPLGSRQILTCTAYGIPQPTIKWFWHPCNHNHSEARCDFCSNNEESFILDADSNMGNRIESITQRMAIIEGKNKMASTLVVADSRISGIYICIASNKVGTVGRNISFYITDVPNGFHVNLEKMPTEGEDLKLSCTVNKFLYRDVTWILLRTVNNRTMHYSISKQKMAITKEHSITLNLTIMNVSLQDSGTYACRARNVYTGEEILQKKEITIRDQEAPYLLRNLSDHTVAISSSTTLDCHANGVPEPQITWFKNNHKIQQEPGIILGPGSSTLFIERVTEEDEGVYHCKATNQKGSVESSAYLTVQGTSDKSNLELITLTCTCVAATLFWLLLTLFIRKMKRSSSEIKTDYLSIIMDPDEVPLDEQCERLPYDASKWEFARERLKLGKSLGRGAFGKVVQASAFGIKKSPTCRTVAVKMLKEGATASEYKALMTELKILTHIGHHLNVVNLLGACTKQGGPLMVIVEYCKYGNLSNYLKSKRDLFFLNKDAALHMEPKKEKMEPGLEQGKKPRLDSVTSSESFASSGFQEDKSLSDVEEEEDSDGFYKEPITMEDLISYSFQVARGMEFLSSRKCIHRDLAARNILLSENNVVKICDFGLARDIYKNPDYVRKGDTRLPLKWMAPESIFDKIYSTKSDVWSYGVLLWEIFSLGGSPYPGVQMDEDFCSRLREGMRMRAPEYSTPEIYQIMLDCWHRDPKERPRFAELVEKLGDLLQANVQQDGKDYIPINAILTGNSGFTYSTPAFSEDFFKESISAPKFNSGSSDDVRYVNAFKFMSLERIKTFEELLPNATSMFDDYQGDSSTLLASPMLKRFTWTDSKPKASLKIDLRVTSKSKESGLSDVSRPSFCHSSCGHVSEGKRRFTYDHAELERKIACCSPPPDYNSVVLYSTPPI
D(1A) dopamine receptor, sequence (P21728 whole entry): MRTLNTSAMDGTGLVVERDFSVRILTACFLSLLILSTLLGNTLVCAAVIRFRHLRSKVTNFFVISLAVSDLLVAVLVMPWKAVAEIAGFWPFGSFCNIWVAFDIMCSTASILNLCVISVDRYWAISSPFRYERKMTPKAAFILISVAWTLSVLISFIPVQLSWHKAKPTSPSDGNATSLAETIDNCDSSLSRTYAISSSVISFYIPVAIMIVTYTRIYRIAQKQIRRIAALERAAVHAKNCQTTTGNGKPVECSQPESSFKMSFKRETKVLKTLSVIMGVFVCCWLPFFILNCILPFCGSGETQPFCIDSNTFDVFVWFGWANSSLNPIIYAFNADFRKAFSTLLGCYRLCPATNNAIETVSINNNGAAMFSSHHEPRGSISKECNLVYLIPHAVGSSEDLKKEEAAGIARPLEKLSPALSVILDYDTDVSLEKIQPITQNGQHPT
D(3) dopamine receptor, sequence (P35462 whole entry): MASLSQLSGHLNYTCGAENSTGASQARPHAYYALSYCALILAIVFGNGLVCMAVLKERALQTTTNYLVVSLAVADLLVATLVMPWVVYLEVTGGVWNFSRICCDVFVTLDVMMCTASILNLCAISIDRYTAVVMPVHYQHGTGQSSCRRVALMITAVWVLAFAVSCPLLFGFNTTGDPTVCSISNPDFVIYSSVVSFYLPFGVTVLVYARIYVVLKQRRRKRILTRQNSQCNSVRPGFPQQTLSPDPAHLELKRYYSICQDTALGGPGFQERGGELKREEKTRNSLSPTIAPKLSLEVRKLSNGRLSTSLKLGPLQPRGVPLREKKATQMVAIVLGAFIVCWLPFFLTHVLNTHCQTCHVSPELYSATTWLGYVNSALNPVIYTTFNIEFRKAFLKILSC
5-hydroxytryptamine receptor 2B, sequence (P41595 whole entry): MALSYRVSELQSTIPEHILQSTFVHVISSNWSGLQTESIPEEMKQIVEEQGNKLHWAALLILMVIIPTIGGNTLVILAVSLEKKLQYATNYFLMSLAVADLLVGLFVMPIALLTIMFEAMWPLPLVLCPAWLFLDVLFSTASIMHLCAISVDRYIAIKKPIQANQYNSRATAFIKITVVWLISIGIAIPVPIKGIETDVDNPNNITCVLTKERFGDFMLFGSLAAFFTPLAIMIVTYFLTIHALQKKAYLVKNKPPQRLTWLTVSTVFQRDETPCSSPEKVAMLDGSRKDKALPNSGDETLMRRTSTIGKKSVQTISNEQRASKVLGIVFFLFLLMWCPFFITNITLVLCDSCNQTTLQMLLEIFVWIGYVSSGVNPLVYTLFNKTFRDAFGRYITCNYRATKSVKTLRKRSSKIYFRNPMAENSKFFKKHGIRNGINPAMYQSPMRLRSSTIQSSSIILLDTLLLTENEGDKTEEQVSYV

The first assay concerns the target T1, Alpha-2A adrenergic receptor (Homo sapiens, UniProt P08913). Also: in other assays of this panel Not Active means under 50% inhibition at 10 µM.
T1 sequence (P08913 whole entry): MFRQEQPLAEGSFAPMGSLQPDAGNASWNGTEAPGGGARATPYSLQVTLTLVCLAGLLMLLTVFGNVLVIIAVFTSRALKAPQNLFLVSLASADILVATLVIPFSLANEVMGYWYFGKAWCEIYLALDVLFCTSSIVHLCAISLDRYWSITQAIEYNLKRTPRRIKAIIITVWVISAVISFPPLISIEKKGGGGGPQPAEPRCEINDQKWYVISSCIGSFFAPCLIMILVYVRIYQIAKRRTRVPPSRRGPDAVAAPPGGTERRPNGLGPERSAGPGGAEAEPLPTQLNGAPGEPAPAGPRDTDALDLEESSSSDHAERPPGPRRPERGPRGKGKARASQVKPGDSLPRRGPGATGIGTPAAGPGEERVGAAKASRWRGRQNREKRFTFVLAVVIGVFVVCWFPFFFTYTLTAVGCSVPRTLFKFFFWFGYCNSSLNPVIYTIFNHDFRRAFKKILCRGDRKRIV
Test: not given
Type of assay: cell membranes, Sf9, Membrane. The conditions noted are these: sf9.
For the compound `COC(=O)C1=C(C)NC(C)=C(C(=O)OC)C1c1ccccc1[N+](=O)[O-]` [NIFEDIPINE], the half-inhibitory concentration (IC50) entry is listed as “Not Active”.
The same measure, in the same setting: with `NC(=O)c1ccccc1O` [SALICYLAMIDE] the entry was “Not Active”.

For another assay, the target named is Beta-2 adrenergic receptor (Homo sapiens, UniProt P07550). The assay is described as follows: DRUGMATRIX: Adrenergic beta2 radioligand binding (ligand: [3H] CGP-12177). It counts as cell membranes, Membrane. The following applies: cho; Not Active = under 50% inhibition at 10 µM.
Beta-2 adrenergic receptor, sequence (P07550 whole entry): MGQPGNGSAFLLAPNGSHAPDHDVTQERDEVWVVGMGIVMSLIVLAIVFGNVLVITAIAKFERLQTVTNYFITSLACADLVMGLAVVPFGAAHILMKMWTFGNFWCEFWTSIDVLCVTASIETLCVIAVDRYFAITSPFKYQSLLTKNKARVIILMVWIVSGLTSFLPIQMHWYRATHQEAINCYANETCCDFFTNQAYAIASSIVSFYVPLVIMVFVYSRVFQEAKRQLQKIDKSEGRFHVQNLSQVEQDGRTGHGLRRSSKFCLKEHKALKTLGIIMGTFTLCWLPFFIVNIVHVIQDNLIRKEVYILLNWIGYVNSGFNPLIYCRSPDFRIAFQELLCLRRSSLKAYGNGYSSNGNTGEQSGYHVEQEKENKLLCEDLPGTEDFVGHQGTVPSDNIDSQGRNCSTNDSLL
As for `COC(=O)C1=C(C)NC(C)=C(C(=O)OC)C1c1ccccc1[N+](=O)[O-]` [NIFEDIPINE], the IC50 entry is “Not Active”.
On the same count and under the same terms, with `NC(=O)c1ccccc1O` [SALICYLAMIDE] the entry was “Not Active”.

In a further assay the target is Aldo-keto reductase family 1 member B1 (Rattus norvegicus, UniProt P07943).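 Also: inhibition of aldose reductase enzyme activity, measured with DL-glyceraldehyde as the substrate; in other assays of this panel Not Active means under 50% inhibition at 10 µM.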
Test: not given
It counts as tissue-based, Lens of camera-type eye.
Settings: not given
Turning to `COC(=O)C1=C(C)NC(C)=C(C(=O)OC)C1c1ccccc1[N+](=O)[O-]` [NIFEDIPINE], the IC50 result was “Not Active”.
On the same count and under the same terms, with `NC(=O)c1ccccc1O` [SALICYLAMIDE] the entry was “Not Active”.

System in another assay: not listed separately
The assay is described as follows: DRUGMATRIX: Atrial Natriuretic Factor (ANF) radioligand binding (ligand: [125I] ANF (rat)). It counts as cell membranes, Cavia porcellus, Dunkin-Hartley, Adrenal gland, Membrane. The following applies: Not Active = under 50% inhibition at 10 µM.
Take `COC(=O)C1=C(C)NC(C)=C(C(=O)OC)C1c1ccccc1[N+](=O)[O-]` [NIFEDIPINE]: the half-maximal inhibitory concentration (IC50) result is listed as “Not Active” and the Ki result is “Not Active”.
Take `NC(=O)c1ccccc1O` [SALICYLAMIDE]: the IC50 result is recorded as “Not Active” and the Ki entry is reported as “Not Active”.

System in the next assay: not listed separately
Kind of assay: DRUGMATRIX: beta-Lactamase enzyme inhibition (substrate: Nitrocefin). Details: species or system Bacillus cereus. The conditions noted are these: Not Active = under 50% inhibition at 10 µM.
Consider `COC(=O)C1=C(C)NC(C)=C(C(=O)OC)C1c1ccccc1[N+](=O)[O-]` [NIFEDIPINE], for which the IC50 entry is recorded as “Not Active” and the Ki entry is on record as “Not Active”.
On to `NC(=O)c1ccccc1O` [SALICYLAMIDE], for which the IC50 result is recorded as “Not Active” and the inhibition constant Ki result is “Not Active”.

System in the next assay: not listed separately
Kind of assay: DRUGMATRIX: Calcium Channel Type L, Dihydropyridine radioligand binding (ligand: [3H] Nitrendipine). Type of assay: cell membranes, Rattus norvegicus, Wistar, Cerebral cortex, Membrane. The conditions noted are these: Not Active = under 50% inhibition at 10 µM.
For `NC(=O)c1ccccc1O` [SALICYLAMIDE], the IC50 entry is on record as “Not Active” and the inhibitory constant (Ki) result is on record as “Not Active”.

Still in this assay, the particulars now being: Not Active = under 50% inhibition at 10 µM; read-out: IC50.
Consider `COC(=O)C1=C(C)NC(C)=C(C(=O)OC)C1c1ccccc1[N+](=O)[O-]` [NIFEDIPINE], for which the IC50 came to 0.048 µM.

Still in this assay, the particulars now being: Not Active = under 50% inhibition at 10 µM; read-out: Ki.
As for `COC(=O)C1=C(C)NC(C)=C(C(=O)OC)C1c1ccccc1[N+](=O)[O-]` [NIFEDIPINE], the Ki turned out to be 0.031 µM.

Another assay has as its target 5-hydroxytryptamine receptor 2B (Homo sapiens, UniProt P41595). Also: in other assays of this panel Not Active means under 50% inhibition at 10 µM.
Test: not given
Type of assay: cell membranes, CHO-K1, Membrane. The following applies: cho-k1.
With `COC(=O)C1=C(C)NC(C)=C(C(=O)OC)C1c1ccccc1[N+](=O)[O-]` [NIFEDIPINE], the IC50 result is “Not Active”.
Regarding `NC(=O)c1ccccc1O` [SALICYLAMIDE], the IC50 entry was “Not Active”.

The target in another assay is Substance-P receptor (Homo sapiens, UniProt P25103). Also: in other assays of this panel Not Active means under 50% inhibition at 10 µM.
Substance-P receptor, sequence (P25103 whole entry): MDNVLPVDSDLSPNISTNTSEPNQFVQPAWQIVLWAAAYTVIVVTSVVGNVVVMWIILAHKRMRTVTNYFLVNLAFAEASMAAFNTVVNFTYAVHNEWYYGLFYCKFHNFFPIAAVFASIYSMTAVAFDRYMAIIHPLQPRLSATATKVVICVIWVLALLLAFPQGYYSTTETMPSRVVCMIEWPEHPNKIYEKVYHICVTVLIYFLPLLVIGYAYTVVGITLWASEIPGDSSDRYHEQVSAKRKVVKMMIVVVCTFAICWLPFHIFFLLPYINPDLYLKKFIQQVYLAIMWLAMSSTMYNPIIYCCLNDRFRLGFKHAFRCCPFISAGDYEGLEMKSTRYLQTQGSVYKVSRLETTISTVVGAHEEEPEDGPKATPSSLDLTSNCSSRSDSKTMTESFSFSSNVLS
Test: not given
Type of assay: cell membranes, CHO, Membrane. The conditions noted are these: cho.
Regarding `COC(=O)C1=C(C)NC(C)=C(C(=O)OC)C1c1ccccc1[N+](=O)[O-]` [NIFEDIPINE], the concentration for half-maximal inhibition (IC50) result is “Not Active”.
The same measure, in the same setting: with `NC(=O)c1ccccc1O` [SALICYLAMIDE] the entry was “Not Active”.

A further assay concerns the target Vascular endothelial growth factor receptor 1 (Homo sapiens, UniProt P17948). Also: in other assays of this panel Not Active means under 50% inhibition at 10 µM.
Test: not given
It counts as cell-based. The conditions noted are these: huvec.
`COC(=O)C1=C(C)NC(C)=C(C(=O)OC)C1c1ccccc1[N+](=O)[O-]` [NIFEDIPINE]: the IC50 result is “Not Active”.
As for `NC(=O)c1ccccc1O` [SALICYLAMIDE], the IC50 entry is “Not Active”.

A further assay concerns the target C-C chemokine receptor type 5 (Homo sapiens, UniProt P51681). Also: in other assays of this panel Not Active means under 50% inhibition at 10 µM.
Test: not given
Type of assay: cell membranes, Membrane. The following applies: hek293.
For `COC(=O)C1=C(C)NC(C)=C(C(=O)OC)C1c1ccccc1[N+](=O)[O-]` [NIFEDIPINE], the IC50 result was “Not Active”.
Same read-out and setting: the result for `NC(=O)c1ccccc1O` [SALICYLAMIDE] reads “Not Active”.

A further assay addresses T2, Cholecystokinin receptor type A (Homo sapiens, UniProt P32238).
T2 sequence (P32238 whole entry): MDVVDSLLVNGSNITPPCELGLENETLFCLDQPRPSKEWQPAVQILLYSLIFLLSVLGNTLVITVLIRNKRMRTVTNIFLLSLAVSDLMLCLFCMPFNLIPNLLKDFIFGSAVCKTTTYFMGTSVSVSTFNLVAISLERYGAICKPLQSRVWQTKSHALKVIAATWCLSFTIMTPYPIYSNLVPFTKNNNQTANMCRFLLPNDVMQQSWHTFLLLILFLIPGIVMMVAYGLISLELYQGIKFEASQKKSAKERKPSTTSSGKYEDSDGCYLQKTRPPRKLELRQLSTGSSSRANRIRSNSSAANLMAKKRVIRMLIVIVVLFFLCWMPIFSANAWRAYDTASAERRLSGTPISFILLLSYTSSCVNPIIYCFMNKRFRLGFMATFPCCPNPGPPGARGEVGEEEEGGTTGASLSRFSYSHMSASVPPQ
Test: not given
Type of assay: cell membranes, Membrane. The following applies: 1321-n1.
As to `COC(=O)C1=C(C)NC(C)=C(C(=O)OC)C1c1ccccc1[N+](=O)[O-]` [NIFEDIPINE], the IC50 result is on record as “Not Active”.
The same measure, in the same setting: with `NC(=O)c1ccccc1O` [SALICYLAMIDE] the entry was “Not Active”.

The next assay concerns the target D(1A) dopamine receptor (Homo sapiens, UniProt P21728). The assay is described as follows: DRUGMATRIX: Dopamine D1 radioligand binding (ligand: [3H] SCH-23390). Type of assay: cell membranes, CHO, Membrane. The conditions noted are these: cho; Not Active = under 50% inhibition at 10 µM.
For the compound `COC(=O)C1=C(C)NC(C)=C(C(=O)OC)C1c1ccccc1[N+](=O)[O-]` [NIFEDIPINE], the IC50 entry is given as “Not Active”.
With `NC(=O)c1ccccc1O` [SALICYLAMIDE], the IC50 result was “Not Active”.

A further assay addresses D(3) dopamine receptor (Homo sapiens, UniProt P35462). Kind of assay: DRUGMATRIX: Dopamine D3 radioligand binding (ligand: [3H] Spiperone). It counts as cell membranes, CHO, Membrane. The conditions noted are these: cho.
In the case of `COC(=O)C1=C(C)NC(C)=C(C(=O)OC)C1c1ccccc1[N+](=O)[O-]` [NIFEDIPINE], the half-maximal inhibitory concentration (IC50) entry is given as “Not Active”.
With `NC(=O)c1ccccc1O` [SALICYLAMIDE], the 50% inhibitory concentration (IC50) entry was “Not Active”.

System in the next assay: not listed separately
The assay is described as follows: DRUGMATRIX: Glutamate, AMPA radioligand binding (ligand: [3H] AMPA). It counts as cell membranes, Rattus norvegicus, Wistar, Cerebral cortex, Membrane. The conditions noted are these: Not Active = under 50% inhibition at 10 µM.
In the case of `COC(=O)C1=C(C)NC(C)=C(C(=O)OC)C1c1ccccc1[N+](=O)[O-]` [NIFEDIPINE], the half-maximal inhibitory concentration (IC50) result was “Not Active” and the inhibitory constant (Ki) entry is listed as “Not Active”.
`NC(=O)c1ccccc1O` [SALICYLAMIDE]: the IC50 entry is “Not Active” and the inhibition constant (Ki) entry is on record as “Not Active”.

A further assay deals with T3, Polyunsaturated fatty acid lipoxygenase ALOX15 (Oryctolagus cuniculus, UniProt P12530).
T3 sequence (P12530 whole entry): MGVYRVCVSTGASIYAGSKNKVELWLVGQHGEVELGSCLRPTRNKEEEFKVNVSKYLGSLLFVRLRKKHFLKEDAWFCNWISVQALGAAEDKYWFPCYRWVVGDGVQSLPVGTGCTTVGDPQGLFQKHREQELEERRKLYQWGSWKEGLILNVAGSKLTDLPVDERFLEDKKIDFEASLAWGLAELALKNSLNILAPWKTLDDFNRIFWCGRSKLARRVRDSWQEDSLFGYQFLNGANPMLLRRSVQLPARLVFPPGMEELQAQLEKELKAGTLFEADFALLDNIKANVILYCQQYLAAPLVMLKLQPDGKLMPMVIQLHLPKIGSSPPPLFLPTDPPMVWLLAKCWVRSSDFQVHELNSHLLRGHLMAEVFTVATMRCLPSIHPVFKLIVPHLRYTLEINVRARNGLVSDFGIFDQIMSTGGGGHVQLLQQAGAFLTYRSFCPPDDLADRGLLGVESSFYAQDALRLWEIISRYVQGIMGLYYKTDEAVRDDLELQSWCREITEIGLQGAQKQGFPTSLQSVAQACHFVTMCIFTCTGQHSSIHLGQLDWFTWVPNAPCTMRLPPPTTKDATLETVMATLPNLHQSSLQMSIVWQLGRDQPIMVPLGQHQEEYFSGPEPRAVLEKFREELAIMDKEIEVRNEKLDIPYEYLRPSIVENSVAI
The assay is described as follows: biochemical. Type of assay: tissue-based, Reticulocytes. The conditions noted are these: read-out: IC50.
Consider `COC(=O)C1=C(C)NC(C)=C(C(=O)OC)C1c1ccccc1[N+](=O)[O-]` [NIFEDIPINE], for which the IC50 stood at 15.1 µM.

The same assay, now with this note: reticulocytes.
Consider `NC(=O)c1ccccc1O` [SALICYLAMIDE], for which the IC50 result is “Not Active”.

The target in a further assay is Mitogen-activated protein kinase 14 (Homo sapiens, UniProt Q16539).
Mitogen-activated protein kinase 14, sequence (Q16539 whole entry): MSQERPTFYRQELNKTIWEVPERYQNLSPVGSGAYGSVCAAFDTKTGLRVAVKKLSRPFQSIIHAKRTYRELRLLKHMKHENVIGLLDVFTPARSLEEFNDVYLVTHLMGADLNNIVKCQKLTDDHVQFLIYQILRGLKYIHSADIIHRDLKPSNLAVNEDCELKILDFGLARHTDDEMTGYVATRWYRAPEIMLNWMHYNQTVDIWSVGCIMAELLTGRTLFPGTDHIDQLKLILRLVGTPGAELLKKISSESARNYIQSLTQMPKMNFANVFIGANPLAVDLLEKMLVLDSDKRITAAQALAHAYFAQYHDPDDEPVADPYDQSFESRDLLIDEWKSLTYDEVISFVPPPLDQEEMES
Test: not given
Details: species or system Escherichia coli.
Settings: not given
In the case of `COC(=O)C1=C(C)NC(C)=C(C(=O)OC)C1c1ccccc1[N+](=O)[O-]` [NIFEDIPINE], the IC50 entry is given as “Not Active”.
Take `NC(=O)c1ccccc1O` [SALICYLAMIDE]: the concentration for half-maximal inhibition (IC50) result was “Not Active”.

For another assay, the target named is T4, Adenosine receptor A1 (Homo sapiens, UniProt P30542).
T4 sequence (P30542 whole entry): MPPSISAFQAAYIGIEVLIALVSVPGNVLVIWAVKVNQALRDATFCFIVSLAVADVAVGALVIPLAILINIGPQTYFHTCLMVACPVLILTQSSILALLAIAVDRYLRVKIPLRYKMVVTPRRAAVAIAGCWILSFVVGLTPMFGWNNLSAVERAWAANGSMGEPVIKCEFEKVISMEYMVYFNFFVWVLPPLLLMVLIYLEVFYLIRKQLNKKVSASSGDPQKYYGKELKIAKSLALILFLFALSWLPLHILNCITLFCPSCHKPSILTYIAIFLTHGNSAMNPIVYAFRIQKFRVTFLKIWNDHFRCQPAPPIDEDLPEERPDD
Test: not given
It counts as cell membranes, CHO, Membrane. The following applies: cho.
On to `NC(=O)c1ccccc1O` [SALICYLAMIDE], for which the IC50 entry was “Not Active”.

Still in this assay, the particulars now being: read-out: IC50.
As for `COC(=O)C1=C(C)NC(C)=C(C(=O)OC)C1c1ccccc1[N+](=O)[O-]` [NIFEDIPINE], the half-inhibitory concentration (IC50) amounted to 7.7 µM.

Still in this assay, the particulars now being: read-out: Ki.
Take `COC(=O)C1=C(C)NC(C)=C(C(=O)OC)C1c1ccccc1[N+](=O)[O-]` [NIFEDIPINE]: the Ki was 4.49 µM.
